Test results: patent publication US5770688A, “Method and composition for the treatment of mammalian HIV infection” (GSF-Forschungszentrum fur Umwelt und Gesundheit GmbH, priority 1989, dated 1998)

Key:
[1] = system: Rauscher leukemia virus; assay: Example 2: Rauscher leukemia virus (RLV) model; assay type: in vivo, Balb/c mice
Source text: As noted earlier, the Rauscher leukemia virus (RLV) model has been used successfully to test a number of compounds like nucleoside analogues, that is, AZT, and which has been utilized, heretofore, to inhibit HIV replication. This is discussed in further detail in the article authored by R. M. Ruprechet, et. al. and which is entitled Development of Antiviral Treatment Strategies in Murin Models, RES. Human Retroviruses, 8,997-1011 (1992). Those skilled in the art will recognized that RLV belongs to the Onkoviruses, which is a subfamily of the retrovirus family, and not to the Lentiviruses family, such as is the case with HIV. Therefore, the RLV model provides a suitable basis upon which one may test substances which interfere with the replication steps which are common, or similar, among related retroviruses. As noted earlier, inasmuch as the melittin (Seq. ID NO:1) appears to inhibit HIV transcription in vitro, then it appears that RLV is a suitable model to test the effect of melittin on in vivo replication inhibition.
The source of virus for the present example was secured from the leukemic spleens of RLV infected Balb/c mice. The virus titer of the pool of leukemic spleens was determined by titration. This titration method is discussed in the article authored by Schmidt et al., "Endogenous Murine Leukemia Viruses: frequency of radiation-activation and novel pathogenic effects of viral isolates." Leukemia Research 12, 393-403, (1988). The spleens were secured from 8 to 10 week old inbreed female Balb/c mice, and further from in mouse embryo fibroblasts. As noted earlier, virus replication in mice normally has been determined by the development of leukemia in the spleen. Additionally, the determination of in vitro virus replication has been measured heretofore by the number of virus protein producing cells which are stained with anti-RLV antibodies in an immuno-peroxidase staining test (IPF). Aliquots of the virus solutions were stored in liquid nitrogen and were again titrated in the fashion as noted above.
Stock virus solutions were diluted to provide solutions having a virus concentration of approximately 7×10^6 infectious units per milliliter. Following preparation of the solutions, 0.5 ml of these viral solutions were injected intraperitoneally (ip) into Balb/c mice that were 8 to 10 weeks old. […] As will be recognized by a study of FIG. 43 and FIG. 48, and following infection with the RLV, nearly 100% of the mice developed leukemia (splenomegaly) within approximately three weeks. […] The mean spleen weight development became less prominent. This is best seen by reference to FIG. 48 and in particular groups 8, 9 and 10.

[2] = system: HIV-infected LC5 cells; assay: MTT toxicity/killing of HIV infected cells (Biomek 1000); assay type: cell-based, human
Protocol: The KE37-1 (uninfected) and KE37-1/111β (infected) cell lines discussed below are commercially available from the Dr. Robert Gallows Laboratory of the NIH in the United States of America and grown in a medium of RPMI 1640 (GIBCO) and further supplemented with 10% fetal calf serum which contained approximately 100 units of penicillin, 100 μg streptomycin, and approximately 0.25 μg fungizone (Amphotericin B) per milliliter. The human mesenchymal cell lines LC5 and LC5-HIV, discussed below, are deposited with the Collection De L'Institut Pasteur of Paris, France on Mar. 9, 1989 and given the accession numbers I-842 and I-843, respectively. The LC5 and LC5-HIV cell lines were grown in a medium of RPMI 1640 and supplemented with 10% fetal calf serum.
A series of experiments and which are illustrated graphically in FIGS. 6 through 34, respectively, were designed to detect two extremes. In particular the tests were designed to detect the inhibition of viral release and/or the release of virus which has a reduced ability to infect other cells. This reduced ability to infect other cells is represented, for example, by glycosylation inhibitors, the direct effect on virus release is represented by acylation inhibitors, RT inhibitors and melittin (Seq. ID NO:1). The most important feature of this experimental design, however, is to detect the toxicity of melittin. The present experiments were carried out on both the astrocytoma cell line LC5-HIV (cloned infected cells) and T-lymphocytoma cell line KE37-1/IIIβ (cloned infected cells with HTLV-IIIβ). In both cases the results were essentially identical.
In the present series of experiments HIV release was tested by a fully automated laboratory robot system and which is manufactured by Beckman Instruments as the Biomek 1000. This system performed the following steps. First, chronically infected cells (cloned) are plated in microtiter plates and grown for a period of seven days. They are then challenged by melittin (Seq. ID NO:1) during this period either for the final day or throughout the period as shown in the figures. The number of living cells are quantified by MTT, that is by a metabolic (dehydrogenase) test. The MTT test is automatically performed. The toxic effect is detected at the time of the experiment and not in a separate control experiment. Furthermore, the supernatant, and which contains released virus cells from the period of time which elapsed from the last wash, and which may vary from 24 hours to 7 days, is collected from the culture, and an aliquot is saved for virus quantification by employing antigen or viral enzyme reverse transcriptase (RT). Furthermore, an aliquot is added to a culture of uninfected cells in microtiter plates for subsequent measurement of the ability of the virus cells to reinfect these uninfected cells. In this regard, the number of infected cells is automatically quantified by an immunoperoxidase staining technique. The test results, as shown, are expressed in terms of toxicity of the melittin (MTT test); the release of HIV from the primary culture (RT test); and the ability of the released virus to infect previously uninfected cells.

[3] = system: phospholipase A2; conditions: anterior pituitary; cited from earlier work
[4] = all treated groups, regardless of schedule
[5] = group 1, after infection, intervals of 4 days
[6] = group 2, after infection, intervals of 2 days
[7] = group 3, after infection, daily

## Gly-Ile-Gly-Ala-Val-Leu-Lys-Val-Leu-Thr-Thr-Gly-Leu-Pro-Ala-Leu-Ile-Ser-Trp-Ile-Lys-Arg-Lys-Arg-Gln-Gln-Amide [melittin]
[1]; [4]
  animals that developed leukemia: 70%
  mean spleen weight: 1.2 grams
[1]; days 5 and 10, five administrations before and six after infection
  spleen weights, treated vs untreated, in words: quite similar with only a slight difference appearing on day 10
[1]; days 5 and 15 (so in the source)
  leukemic animals, in words: no leukemic animals could be found on days 5 and 15
[1]; [5]
  leukemic animals: 4 out of 6
  mean spleen weight: 1.1 grams
[1]; [6]
  leukemic animals: 5 out of 6
  mean spleen weight: 1.3 grams
[1]; group 2, pre-treated, 5 injections, FIG. 45
  mean spleen weight: 1.5 grams
[1]; [7]
  leukemic animals: 5 out of 6
  mean spleen weight: 1.1 grams
[1]; group 3, pre-treated, 4 injections, FIG. 45
  mean spleen weight: 1.5 grams
[1]; group 4, pre-treated, 3 injections, FIG. 45
  mean spleen weight: 1.3 grams
[1]; group 5, once before infection and five times later in four day intervals
  mean spleen weight: approximately 1.3 grams
[1]; group 6, day 15, ten analyzed
  number of leukemic animals: one
[1]; group 6, single injection 12 hours before infection
  mean spleen weight: 1.1 grams
[1]; group 7, single injection 24 hours before infection
  mean spleen weight: 0.7 grams
[1]; group 8, day 21
  animals that develop leukemia: 7 out of 10
  mean spleen weight: 1.2 grams
[1]; group 8, single injection 6 hours before infection
  mean spleen weight: 0.9 grams
[1]; pre-treated animals, FIG. 45
  development of leukemia, in words: nearly all of the pre-treated animals also developed leukemia
[2]
  killing concentration compared with concentration for effect on HIV release: ten times higher than the effect on HIV release
  lysis of HIV-infected LC5 cells: able to lyse HIV-infected LC5 cells
[2]; FIGS. 6-19
  selectivity for infected cells, in words: appears to not selectively affect the infected cells
[2]; infected
  critical concentration at which all infected cells were killed: 10 μg per ml
[3]
  effect on phospholipase A2: stimulates endogenous phospholipase A2 in the anterior pituitary leading to growth hormone secretion
